Assay results reported in patent US11179372B2, “Isoxazoline solution containing vitamin E for use with sanitized drinking water” (Intervet Inc., priority 2015, dated 2021).

Assay: Prevention of degradation by oxidizing sanitizer (hypochlorite) in medicated drinking water
Type: physicochemical
Method: The Fluralaner level was determined using UHPLC. The alpha-tocopherol used was alpha-tocopherol EP (Fluka).
To prepare the test samples, the required amounts of Transcutol and Tween were measured, combined in a beaker at room temperature, and mixed magnetically. Next, when no protector was added, the required amount of Fluralaner was weighed, added, and mixed until complete dissolution, which usually required about 10 minutes, at 70% speed. […] The complete dissolution was verified visually. Next the density of the resulting solution was checked with a Densimeter, at 20° C.
To test the capacity of the different protectors to prevent degradation of Fluralaner in medicated drinking water by an oxidising sanitizer, samples of the pharmaceutical composition as prepared above were diluted to different concentrations, and incubated with different amounts of hypochlorite. Concentrations of Fluralaner in medicated drinking water used were: 1, 5, and 10 μg/ml.
The hypochlorite used was from a 13% sodium hypochlorite solution (Acros Organics), which was prepared into samples with a concentration of hypochlorite of: 0, 0.5, 2, 5, or 10 ppm, wherein 1 ppm equals 20 μM. Samples without hypochlorite served as positive controls. While the dilutions of hypochlorite were made in purified water, one additional sample at 5 ppm hypochlorite was prepared in standard tap water (Angers, France). Control samples were tested at day zero, all others were tested after an incubation for 7 days at 40° C./75% RH.
The concentration of protector in the test sample was dependent of the dilution factor of the concentrated Fluralaner composition applied: 1:10,000, 1:2000, or 1:1000, respectively.

[1] = Conc. Fluralaner 1 μg/ml, hypochlorite 0 ppm, T = 0
[2] = Conc. Fluralaner 1 μg/ml, hypochlorite 0 ppm, T = 7 d at 40° C./75% RH
[3] = Conc. Fluralaner 1 μg/ml, hypochlorite 0.5 ppm, T = 7 d at 40° C./75% RH
[4] = Conc. Fluralaner 1 μg/ml, hypochlorite 2 ppm, T = 7 d at 40° C./75% RH
[5] = Conc. Fluralaner 1 μg/ml, hypochlorite 5 ppm (tapw.), T = 7 d at 40° C./75% RH
[6] = Conc. Fluralaner 1 μg/ml, hypochlorite 5 ppm, T = 7 d at 40° C./75% RH
[7] = Conc. Fluralaner 1 μg/ml, hypochlorite 10 ppm, T = 7 d at 40° C./75% RH
[8] = Conc. Fluralaner 5 μg/ml, hypochlorite 0 ppm, T = 0
[9] = Conc. Fluralaner 5 μg/ml, hypochlorite 0 ppm, T = 7 d at 40° C./75% RH
[10] = Conc. Fluralaner 5 μg/ml, hypochlorite 0.5 ppm, T = 7 d at 40° C./75% RH
[11] = Conc. Fluralaner 5 μg/ml, hypochlorite 2 ppm, T = 7 d at 40° C./75% RH
[12] = Conc. Fluralaner 5 μg/ml, hypochlorite 5 ppm (tapw.), T = 7 d at 40° C./75% RH
[13] = Conc. Fluralaner 5 μg/ml, hypochlorite 5 ppm, T = 7 d at 40° C./75% RH
[14] = Conc. Fluralaner 5 μg/ml, hypochlorite 10 ppm, T = 7 d at 40° C./75% RH
[15] = Conc. Fluralaner 10 μg/ml, hypochlorite 0 ppm, T = 0
[16] = Conc. Fluralaner 10 μg/ml, hypochlorite 0 ppm, T = 7 d at 40° C./75% RH
[17] = Conc. Fluralaner 10 μg/ml, hypochlorite 0.5 ppm, T = 7 d at 40° C./75% RH
[18] = Conc. Fluralaner 10 μg/ml, hypochlorite 2 ppm, T = 7 d at 40° C./75% RH
[19] = Conc. Fluralaner 10 μg/ml, hypochlorite 5 ppm (tapw.), T = 7 d at 40° C./75% RH
[20] = Conc. Fluralaner 10 μg/ml, hypochlorite 5 ppm, T = 7 d at 40° C./75% RH
[21] = Conc. Fluralaner 10 μg/ml, hypochlorite 10 ppm, T = 7 d at 40° C./75% RH

## Cc1cc(C2=NOC(c3cc(Cl)cc(Cl)c3)(C(F)(F)F)C2)ccc1C(=O)NCC(=O)NCC(F)(F)F (stereo not drawn) [Fluralaner]
[1]
  Fluralaner content in medicated drinking water; alpha-tocopherol as protector: 0.91 µg/mL
  Fluralaner content in medicated drinking water; no protector: 0.93 µg/mL
[2]
  Fluralaner content in medicated drinking water; alpha-tocopherol as protector: 0.89 µg/mL
  Fluralaner content in medicated drinking water; no protector: 0.92 µg/mL
[3]
  Fluralaner content in medicated drinking water; alpha-tocopherol as protector: 0.91 µg/mL
  Fluralaner content in medicated drinking water; no protector: 0.91 µg/mL
[4]
  Fluralaner content in medicated drinking water; alpha-tocopherol as protector: 0.92 µg/mL
  Fluralaner content in medicated drinking water; no protector: 0.91 µg/mL
[5]
  Fluralaner content in medicated drinking water; alpha-tocopherol as protector: 0.86 µg/mL
  Fluralaner content in medicated drinking water; no protector: 0.13 µg/mL
[6]
  Fluralaner content in medicated drinking water; alpha-tocopherol as protector: 0.89 µg/mL
  Fluralaner content in medicated drinking water; no protector: 0.29 µg/mL
[7]
  Fluralaner content in medicated drinking water; alpha-tocopherol as protector: 0.05 µg/mL
  Fluralaner content in medicated drinking water; no protector: <LoQ
[8]
  Fluralaner content in medicated drinking water; alpha-tocopherol as protector: 5.52 µg/mL
  Fluralaner content in medicated drinking water; no protector: 5.50 µg/mL
[9]
  Fluralaner content in medicated drinking water; alpha-tocopherol as protector: 5.45 µg/mL
  Fluralaner content in medicated drinking water; no protector: 5.51 µg/mL
[10]
  Fluralaner content in medicated drinking water; alpha-tocopherol as protector: 5.52 µg/mL
  Fluralaner content in medicated drinking water; no protector: 5.52 µg/mL
[11]
  Fluralaner content in medicated drinking water; alpha-tocopherol as protector: 5.52 µg/mL
  Fluralaner content in medicated drinking water; no protector: 5.50 µg/mL
[12]
  Fluralaner content in medicated drinking water; alpha-tocopherol as protector: 5.42 µg/mL
  Fluralaner content in medicated drinking water; no protector: 4.43 µg/mL
[13]
  Fluralaner content in medicated drinking water; alpha-tocopherol as protector: 5.49 µg/mL
  Fluralaner content in medicated drinking water; no protector: 5.31 µg/mL
[14]
  Fluralaner content in medicated drinking water; alpha-tocopherol as protector: 5.56 µg/mL
  Fluralaner content in medicated drinking water; no protector: 1.54 µg/mL
[15]
  Fluralaner content in medicated drinking water; alpha-tocopherol as protector: 10.14 µg/mL
  Fluralaner content in medicated drinking water; no protector: 10.10 µg/mL
[16]
  Fluralaner content in medicated drinking water; alpha-tocopherol as protector: 10.01 µg/mL
  Fluralaner content in medicated drinking water; no protector: 10.07 µg/mL
[17]
  Fluralaner content in medicated drinking water; alpha-tocopherol as protector: 10.10 µg/mL
  Fluralaner content in medicated drinking water; no protector: 10.03 µg/mL
[18]
  Fluralaner content in medicated drinking water; alpha-tocopherol as protector: 10.10 µg/mL
  Fluralaner content in medicated drinking water; no protector: 10.03 µg/mL
[19]
  Fluralaner content in medicated drinking water; alpha-tocopherol as protector: 9.94 µg/mL
  Fluralaner content in medicated drinking water; no protector: 8.69 µg/mL
[20]
  Fluralaner content in medicated drinking water; alpha-tocopherol as protector: 9.99 µg/mL
  Fluralaner content in medicated drinking water; no protector: 9.97 µg/mL
[21]
  Fluralaner content in medicated drinking water; alpha-tocopherol as protector: 10.05 µg/mL
  Fluralaner content in medicated drinking water; no protector: 5.05 µg/mL
